Laboratory results taken from ChEMBL document CHEMBL4007392, “Modulating Mineralocorticoid Receptor with Non-steroidal Antagonists. New Opportunities for the Development of Potent and Selective Ligands without Off-Target Side Effects” (J Med Chem, 2017).

Each molecule was assayed against T1, Mineralocorticoid receptor (Homo sapiens, UniProt P08235) (assay: Antagonist activity at Gal4-fused human MR LBD (734 to 985 residues) expressed in CHO-K1 cells after 5 to 6 hrs by luciferase reporter gene assay).
T1 sequence (P08235 whole entry): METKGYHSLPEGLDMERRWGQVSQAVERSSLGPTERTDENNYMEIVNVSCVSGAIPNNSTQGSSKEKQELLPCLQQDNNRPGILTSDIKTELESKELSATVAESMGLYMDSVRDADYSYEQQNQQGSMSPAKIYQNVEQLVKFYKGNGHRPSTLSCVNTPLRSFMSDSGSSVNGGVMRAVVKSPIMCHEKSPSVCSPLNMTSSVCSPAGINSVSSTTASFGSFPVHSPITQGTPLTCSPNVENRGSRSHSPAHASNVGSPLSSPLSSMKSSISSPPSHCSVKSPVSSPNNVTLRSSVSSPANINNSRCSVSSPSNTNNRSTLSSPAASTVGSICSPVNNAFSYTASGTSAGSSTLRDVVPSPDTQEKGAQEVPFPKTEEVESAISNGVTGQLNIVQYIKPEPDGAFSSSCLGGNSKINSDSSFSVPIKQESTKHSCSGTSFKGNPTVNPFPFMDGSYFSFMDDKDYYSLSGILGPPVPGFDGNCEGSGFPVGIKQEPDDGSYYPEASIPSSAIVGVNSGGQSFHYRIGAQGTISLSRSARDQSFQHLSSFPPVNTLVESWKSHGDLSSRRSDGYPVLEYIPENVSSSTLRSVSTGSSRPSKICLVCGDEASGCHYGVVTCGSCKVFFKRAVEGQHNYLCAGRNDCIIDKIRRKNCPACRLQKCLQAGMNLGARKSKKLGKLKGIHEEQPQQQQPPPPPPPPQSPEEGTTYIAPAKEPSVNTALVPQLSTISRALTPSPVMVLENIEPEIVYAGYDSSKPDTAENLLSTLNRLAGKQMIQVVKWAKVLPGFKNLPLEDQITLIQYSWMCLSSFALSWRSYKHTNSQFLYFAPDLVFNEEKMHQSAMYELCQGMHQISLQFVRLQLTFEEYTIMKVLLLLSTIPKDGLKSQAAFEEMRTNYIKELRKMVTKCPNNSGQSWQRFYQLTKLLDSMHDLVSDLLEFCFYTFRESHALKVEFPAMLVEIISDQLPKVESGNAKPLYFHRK
Assay type: cell-based

Row | IC50 [nM] | SMILES
1 | 160 | CC1=C(C#N)C(c2cccc3c(=O)cc(C)oc23)C(C(=O)OC(C)C)=C(C)N1 (stereo not given)
2 | 23 | CC1=C(C#N)C(c2cccc3c2-c2ccccc2C3=O)C(C(=O)OC(C)C)=C(C)N1 (stereo not given)
3 | 310 | CCc1cnc2cccc(C3C(C#N)=C(C)NC(C)=C3C(=O)OC(C)C)c2c1 (stereo not given)
4 | 100 | CCOc1nccc2c1C(c1ccc(C#N)cc1OC)C(C#N)=C(C)N2 (stereo not given)
5 | 18 | COC(=O)c1c(C)nc(C)c(C(=O)CC2CCC2)c1-c1cccc2c(=O)cc(C)oc12

What follows are molecules tested against T1, Mineralocorticoid receptor (assay: Antagonist activity at Gal4-fused human MR LBD (671 to 984 residues) expressed in African Green Monkey CV-1 cells assessed as inhibition of aldosterone-induced transactivation activity after 20 hrs by luciferase reporter gene assay).
Assay type: cell-based

Row | IC50 [nM] | SMILES
6 | < 500 | Cc1[nH]c(C(=O)Nc2ccc(S(C)(=O)=O)cc2)c(C)c1-c1ccccc1C(F)(F)F
7 | 6.2 | Cc1c(C(=O)Nc2ccc(S(C)(=O)=O)cc2)cc([C@H](C)[C@H](C)O)n1-c1ccc(F)cc1C(F)(F)F (mixture of isomers)
8 | > 1000 | Cc1c(C(=O)Nc2ccc(S(C)(=O)=O)cc2)cn([C@H](C)[C@H](C)O)c1-c1ccc(F)cc1C(F)(F)F (single isomer, unassigned; atropisomer 2)
9 | 3.8 | Cc1c(C(=O)Nc2ccc(S(C)(=O)=O)cc2)cn([C@H](C)[C@H](C)O)c1-c1ccc(F)cc1C(F)(F)F
10 | < 500 | Cc1cc(C(=O)NCCc2ccccc2)c(C)n1-c1ccccc1C(F)(F)F
11 | < 500 | Cc1cc(C(=O)Nc2ccc(S(N)(=O)=O)cc2)c(C)n1-c1ccccc1C(F)(F)F
12 | < 500 | Cc1ccc(NC(=O)c2cc(C)n(-c3ccccc3C(F)(F)F)c2C)cc1Cl
13 | < 500 | Cc1cc(C(=O)Nc2cccc3ccccc23)c(C)n1-c1ccccc1C(F)(F)F

Row | SMILES | IC50 [nM]
14 | Cc1c(C(=O)Nc2ccc(S(C)(=O)=O)cc2)cc(C[C@H](C)O)n1-c1ccc(Cl)cc1-c1ccc(F)cc1 (single isomer, unassigned; atropisomer 2) | > 1000
15 | Cc1c(C(=O)Nc2ccc(S(C)(=O)=O)cc2)cc(C[C@H](C)O)n1-c1ccc(Cl)cc1C(F)(F)F (single isomer, unassigned; atropisomer 2) | > 1000
16 | Cc1c(C(=O)Nc2ccc(S(C)(=O)=O)cc2)cc(CCF)n1-c1ccc(F)cc1OC(F)F (single isomer, unassigned; atropisomer 2) | > 1000
17 | Cc1c(C(=O)Nc2ccc(S(C)(=O)=O)cc2)cc(CCO)n1-c1ccc(Cl)cc1C(F)(F)F (single isomer, unassigned; atropisomer 2) | > 1000

These molecules were tested against T1, Mineralocorticoid receptor (assay: Displacement of [3H]-Aldosterone from MR overexpressed in human 293 cells measured after 2 hrs by Microbeta scintillation counting method).
Assay type: cell-based

Row | Ki [nM] | SMILES
18 | 0.23 | N#C/N=c1/[nH]c2cc(/C=C3/c4ccc(F)cc4OCc4c(F)cccc43)ccc2n1[C@H]1C[C@@H]2COCCN2C1
19 | ≤ 10 | NC(=O)/N=c1/[nH]c2cc(/C=C3\c4ccccc4COc4cc(F)ccc43)ccc2n1[C@H]1C[C@@H]2COCCN2C1
20 | ≤ 10 | N#C/N=c1/[nH]c2cc(/C=C3/c4ccc(F)cc4OCc4c(F)cccc43)ccc2n1[C@H]1C[C@H]2COCCN2C1
21 | 0.08 | CN1CCN(n2/c(=N\C#N)[nH]c3cc(/C=C4\c5ccccc5COc5cc(F)ccc54)ccc32)CC1
22 | ≤ 10 | C[C@@H](CN1CCOCC1)n1/c(=N/C#N)[nH]c2cc(/C=C3/c4ccc(F)cc4OCc4c(F)cccc43)ccc21
23 | ≤ 10 | N#C/N=c1\[nH]c2cc(/C=C3/c4ccc(F)cc4OCc4c(F)cccc43)ccc2n1[C@@H]1C[C@H]2COCCN2C1
24 | 0.79 | C[C@H](CN1CCOCC1)n1/c(=N\C#N)[nH]c2cc(/C=C3\c4ccc(F)cc4COc4cc(F)ccc43)ccc21
25 | ≤ 10 | CN1C[C@H](O)[C@@H](n2/c(=N/C#N)[nH]c3cc(/C=C4\c5ccccc5COc5cc(F)ccc54)ccc32)C1
26 | ≤ 10 | N#C/N=c1/[nH]c2cc(/C=C3/c4ccc(F)cc4OCc4c(F)cccc43)ccc2n1[C@@H]1C[C@@H]2COCCN2C1
27 | 0.33 | C[C@H](CN1CCOCC1)n1/c(=N\C(N)=O)[nH]c2cc(/C=C3\c4ccccc4COc4cc(F)ccc43)ccc21 [LY2623091]
28 | ≤ 10 | C[C@H](CN1CCOCC1)n1/c(=N\C#N)[nH]c2cc(/C=C3/c4ccc(F)cc4OCc4c(F)cccc43)ccc21
29 | ≤ 10 | C[C@@H](CN1CCOCC1)n1/c(=N/C#N)[nH]c2cc(/C=C3\c4ccccc4COc4cc(F)ccc43)ccc21
30 | ≤ 10 | C[C@@H](CN1CCOCC1)n1/c(=N/C#N)[nH]c2cc(/C=C3\c4ccc(F)cc4COc4cc(F)ccc43)ccc21
